# Measured values: patent publication US9937227B2, “Humanin, analogs and cancer treatment methods and uses thereof” (LOS ANGELES BIOMEDICAL RESEARCH INSTITUTE AT HARBOR-UCLA …, priority 2014, dated 2018)
# Where a name gives a salt, the structure may show the parent alone. Peptide text beside a SMILES is read from it.
# What was measured:
# [1] = tested on: germ cells in seminiferous tubules; assay: DOX-induced germ cell apoptosis in mouse seminiferous tubule cultures ex vivo (TUNEL); assay type: cell-based; details: 12 hours
# Protocol: A total of 15 young adult (12-13 week-old) mice were used for these ex vivo studies. The animals were sacrificed with a 5% pentobarbital (200 mg/Kg) IP injection. Testes were dissected and after removing the tunica albuginea, seminiferous tubules isolated from testes were cut into small segments under a dissecting microscope and light and dark segments were separated by dissection. Ten to twelve segments were placed (2 mm in length) in each well on a six well plate with 2 ml serum free Ham F-10 culture medium (GIBCO, Life Technologies, Thermo Fisher Scientific Corp., Carlsbad, Calif.) with the following treatments: control (Con, n=10), heat (43° C., 15 minutes, used as a positive control, n=10); HN 10 μg/mL (n=9); DOX 10 mcM (Dox10, n=10); and DOX 10 mcM+Humanin 10 μg/mL (Dox10+HN, n=10). For these experiments, n represents the total number of times the treatment was repeated using different animals. After 12 hours of incubation at 34° C. the seminiferous tubules from each treatment group were used to make “squashed” seminiferous tubule samples on a slide for TUNEL (TdT-mediated dUTP nick-end labeling) assay to detect germ cell apoptosis (Erkkila, et al., 1997; Toppari & Parvinen, 1985). To quantify the rate of germ cell apoptosis under a light microscope at 400× magnification, a square grid fitted within the eyepiece provided a reference area of 62,500 μm^2. The TUNEL positive apoptotic germ cells within the frame of grid were counted in 4 segments of seminiferous tubules in each group. The incidence of germ cell apoptosis was expressed as the number of apoptotic germ cells per mm^2.
# A total of 15 mice were used for ex vivo studies. The animals were sacrificed and seminiferous tubules isolated from testes were cut into small segments under a dissecting microscope to identify light (early stages I-IV and late stages XI-XII) of the seminiferous epithelium) and dark (middle stages VII-VIII) segments. […] To quantify the rate of germ cell apoptosis, the squashed segments of seminiferous tubules were examined with an American Optical Microscope (Scientific Instruments, Buffalo, N.Y.) with a 40× objective and a 10× eyepiece lens. […] The TUNEL positive apoptotic germ cells within the frame of grid were counted in 4 segments of seminiferous tubules in each group. The incidence of germ cell apoptosis was expressed as the number of apoptotic germ cells per mm^2.
# [2] = tested on: male germ cells; details: testicular cross sections, 24 hours; HN 40 mg/Kg or CP 200 mg/Kg single IP
# Protocol: Young adult mice (12-13 weeks) were randomly divided into 4 groups with 4 or 5 mice per group and received an IP injection: control (Con) (saline), HN (40 mg/Kg BW), CP (200 mg/Kg BW), and the combination of CP+HN. These experiments were repeated four times. In the CP+HN group, mice received an injection of HN followed by an injection of CP about 15 minutes later. Twenty-four hours after injections animals were sacrificed using 5% pentobarbital (200 mg/kg BW) IP injection. Blood was collected and one testis was removed, weighed and frozen in liquid nitrogen. The mouse was next perfused with saline and then subsequently perfuse-fixed with Bouin's solution as previously described and apoptosis was assessed by TUNEL assay (Lue, et al., 2009).
# For detection of apoptosis in testicular sections, the paraffin embedded testis tissue was cut into 5 micron sections and stained with the TdT-mediated dUTP nick-end labeling assay (TUNEL Apoptosis Detection Kit, Millipore, Billerica, Mass.) to detect apoptosis of germ cells in the testis (Lue, et al., 2009). Testicular sections assayed by TUNEL were examined under a light microscope and the apoptotic germ cells were blindly and manually counted. The seminiferous tubules in the testis section under the microscope were grouped as stages IX-IV (early-late stages of spermatogenesis) and V-VIII (middle stages of spermatogenesis). Germ cell apoptosis was quantified as the number of seminiferous tubules containing apoptotic spermatogonia, spermatoctyes, round spermatids and spermatozoa per 100 seminiferous tubules (Drumond, et al., 2011).
# [3] = tested on: male germ cells; assay type: in vivo; details: single IP; HN, HN-S7A, HN-C8P, HN-L12A 40 mg/Kg BW; HNG, HNG-F6A 5 mg/Kg BW; 24 hours
# Protocol: For the HN analog experiments, male mice were divided into seven groups (n=4-5 per group) and received one of the following treatments and sacrificed after 24 hours: 1) vehicle (control); 2) a single intra-peritoneal (IP) injection of HN peptide [HN, 40 mg/Kg body weight (BW)]; 3) a single IP injection of CP (CP, 200 mg/Kg BW); 4) IP injection of CP and HN (CP+HN); 5) a single IP injection of each HN analog (HNG 5 mg/Kg BW, HNG-F6A 5 mg/Kg BW, HN-S7A 40 mg/Kg BW, HN-C8P 40 mg/Kg BW, or HN-L12A 40 mg/Kg BW); 6) IP injection of CP and each HN analog (CP+HNG, HNG-F6A, HN-S7A, HN-C8P, or HN-L12A); and 7) IP injection of CP+HN+HN analog (HN-S7A, HN-C8P, or HN-L12A; to assess whether the analogs has enhancing or inhibitory effect on HN).
# To facilitate testicular fixation by using a whole-body perfusion technique, all animals were injected with heparin (130 IU/100 g BW, IP) 15 min before a lethal injection of sodium pentobarbital (200 mg/kg BW, IP) (Lue Y H, et al., 1999). One testis was removed and weighed after perfusion with saline. Portions of testicular parenchyma were snap frozen in liquid nitrogen, and stored at −80 C for Western blotting. The other testis was fixed by vascular perfusion with Bouin's solution, and processed with routine paraffin embedding for in situ detection of apoptosis.
# Detection of apoptotic cells was performed in Bouin's'-fixed, paraffin-embedded testicular sections by the terminal deoxynucleotidyl transferase (TdT)-mediated deoxy-UTP nick end labeling (TUNEL) technique (Sinha Hikim A P, et al., 1997) using an ApopTag-peroxidase kit (Chemicon International, Inc., Temecula, Calif.). Enumeration of the Sertoli cell nuclei with distinct nucleoli and apoptotic germ cell population was quantified at stages I-IV (early stages), stages VII-VIII (middle stages) and stages XI-XII (late stages) of the seminiferous epithelial cycle using an Olympus BH-2 microscope (New Hyde Park, N.Y.). Stages were identified according to the criteria proposed by Russell et al for paraffin sections (Russell L, 1977). The rate of germ cell apoptosis (apoptotic index, AI) was expressed as the number of apoptotic germ cells per Sertoli cells (Sinha Hikim A P, et al., 1997).
# [4] = tested on: testosterone; details: with or without EDS pre-treatment
smiles,measurement,setting,value
CC[C@H](C)[C@H](NC(=O)[C@H](CCC(=O)O)NC(=O)[C@H](CO)NC(=O)[C@@H](NC(=O)[C@H](CC(C)C)NC(=O)[C@H](CC(C)C)NC(=O)[C@H](CC(C)C)NC(=O)[C@H](CC(C)C)NC(=O)[C@H](CS)NC(=O)[C@H](CO)NC(=O)[C@H](Cc1ccccc1)NC(=O)CNC(=O)[C@H](CCCNC(=N)N)NC(=O)[C@@H]1CCCN1C(=O)[C@H](C)NC(=O)[C@@H](N)CCSC)[C@@H](C)O)C(=O)N[C@@H](CC(=O)O)C(=O)N[C@@H](CC(C)C)C(=O)N1CCC[C@H]1C(=O)N[C@H](C(=O)N[C@@H](CCCCN)C(=O)N[C@@H](CCCNC(=N)N)C(=O)N[C@@H](CCCNC(=N)N)C(=O)N[C@@H](C)C(=O)O)C(C)C [HN],germ cell apoptosis compared with control,[1]; HN 10 μg/mL alone or DOX 10 μM (high dose) alone,no significant effect
same,germ cell apoptosis compared to control,[2],no significant effect
same,"spontaneous germ cell apoptosis, peptide alone",[3],did not change
same,intratesticular testosterone levels,[4],no significant effects
same,serum testosterone levels,[4],no significant effects
CC[C@H](C)[C@H](NC(=O)[C@H](CCC(=O)O)NC(=O)[C@H](CO)NC(=O)[C@@H](NC(=O)[C@H](CC(C)C)NC(=O)[C@H](CC(C)C)NC(=O)[C@H](CC(C)C)NC(=O)[C@H](CC(C)C)NC(=O)[C@@H]1CCCN1C(=O)[C@H](CO)NC(=O)[C@H](Cc1ccccc1)NC(=O)CNC(=O)[C@H](CCCNC(=N)N)NC(=O)[C@@H]1CCCN1C(=O)[C@H](C)NC(=O)[C@@H](N)CCSC)[C@@H](C)O)C(=O)N[C@@H](CC(=O)O)C(=O)N[C@@H](CC(C)C)C(=O)N1CCC[C@H]1C(=O)N[C@H](C(=O)N[C@@H](CCCCN)C(=O)N[C@@H](CCCNC(=N)N)C(=O)N[C@@H](CCCNC(=N)N)C(=O)N[C@@H](C)C(=O)O)C(C)C [HN-C8P] (H-MAPRGFSPLLLLTSEIDLPVKRRA-OH; N-terminus and C-terminus assumed),"spontaneous germ cell apoptosis, peptide alone",[3],did not change
CC[C@H](C)[C@H](NC(=O)[C@H](CCC(=O)O)NC(=O)[C@H](CO)NC(=O)[C@@H](NC(=O)[C@H](C)NC(=O)[C@H](CC(C)C)NC(=O)[C@H](CC(C)C)NC(=O)[C@H](CC(C)C)NC(=O)[C@H](CS)NC(=O)[C@H](CO)NC(=O)[C@H](Cc1ccccc1)NC(=O)CNC(=O)[C@H](CCCNC(=N)N)NC(=O)[C@@H]1CCCN1C(=O)[C@H](C)NC(=O)[C@@H](N)CCSC)[C@@H](C)O)C(=O)N[C@@H](CC(=O)O)C(=O)N[C@@H](CC(C)C)C(=O)N1CCC[C@H]1C(=O)N[C@H](C(=O)N[C@@H](CCCCN)C(=O)N[C@@H](CCCNC(=N)N)C(=O)N[C@@H](CCCNC(=N)N)C(=O)N[C@@H](C)C(=O)O)C(C)C [HN-L12A] (H-MAPRGFSCLLLATSEIDLPVKRRA-OH; N-terminus and C-terminus assumed),"spontaneous germ cell apoptosis, peptide alone",[3],did not change
CC[C@H](C)[C@H](NC(=O)[C@H](CCC(=O)O)NC(=O)[C@H](CO)NC(=O)[C@@H](NC(=O)[C@H](CC(C)C)NC(=O)[C@H](CC(C)C)NC(=O)[C@H](CC(C)C)NC(=O)[C@H](CC(C)C)NC(=O)[C@H](CS)NC(=O)[C@H](C)NC(=O)[C@H](Cc1ccccc1)NC(=O)CNC(=O)[C@H](CCCNC(=N)N)NC(=O)[C@@H]1CCCN1C(=O)[C@H](C)NC(=O)[C@@H](N)CCSC)[C@@H](C)O)C(=O)N[C@@H](CC(=O)O)C(=O)N[C@@H](CC(C)C)C(=O)N1CCC[C@H]1C(=O)N[C@H](C(=O)N[C@@H](CCCCN)C(=O)N[C@@H](CCCNC(=N)N)C(=O)N[C@@H](CCCNC(=N)N)C(=O)N[C@@H](C)C(=O)O)C(C)C [HN-S7A] (H-MAPRGFACLLLLTSEIDLPVKRRA-OH; N-terminus and C-terminus assumed),"spontaneous germ cell apoptosis, peptide alone",[3],did not change
CC[C@H](C)[C@H](NC(=O)[C@H](CCC(=O)O)NC(=O)CNC(=O)[C@@H](NC(=O)[C@H](CC(C)C)NC(=O)[C@H](CC(C)C)NC(=O)[C@H](CC(C)C)NC(=O)[C@H](CC(C)C)NC(=O)[C@H](CS)NC(=O)[C@H](CO)NC(=O)[C@H](C)NC(=O)CNC(=O)[C@H](CCCNC(=N)N)NC(=O)[C@@H]1CCCN1C(=O)[C@H](C)NC(=O)[C@@H](N)CCSC)[C@@H](C)O)C(=O)N[C@@H](CC(=O)O)C(=O)N[C@@H](CC(C)C)C(=O)N1CCC[C@H]1C(=O)N[C@H](C(=O)N[C@@H](CCCCN)C(=O)N[C@@H](CCCNC(=N)N)C(=O)N[C@@H](CCCNC(=N)N)C(=O)N[C@@H](C)C(=O)O)C(C)C [HNG-F6A] (H-MAPRGASCLLLLTGEIDLPVKRRA-OH; N-terminus and C-terminus assumed),"spontaneous germ cell apoptosis, peptide alone",[3],did not change
"COc1cccc2c1C(=O)c1c(O)c3c(c(O)c1C2=O)C[C@@](O)(C(=O)CO)C[C@@H]3O[C@H]1C[C@H](N)[C@H](O)[C@H](C)O1 [DOX, doxorubicin hydrochloride]",germ cell apoptosis compared with control,"[1]; HN 10 μg/mL alone or DOX 10 μM (high dose) alone, hydrochloride",significantly higher number of apoptotic germ cells
same,germ cell apoptosis compared with control,"[1]; HN 10 μg/mL alone or DOX 10 μM (high dose) alone, listed as doxorubicin, hydrochloride",significantly increased apoptosis
same,germ cell apoptosis compared with control,[1]; doxorubicin 1 μM (low dose),increased apoptosis but did not reach statistical difference
